According to patent US20230129438A1, “IMMUNOMODULATING IMINE-OXAZOLINE AZALIDES” (Zoetis Services LLC, priority 2020, published 2023):
In brackets after ≈: the same amount, converted by molar mass.

Assays:
[1] = system: P. multocida 46572; assay: In vivo mouse lung infection challenge model (murine efficacy model); conditions: 20 mg/kg subcutaneous, CD-1 mice, intranasal challenge, to Day 10; approximate (~%), harmonized relative to vehicle and M9
[2] = system: TNF-α; assay: Bovine whole blood assay, LPS-induced TNF-α; format: cell-based; conditions: LPS 1 μg/mL
Protocol: (§1) (protected from light) for 30 minutes.

[3] = system: IL-6; assay: Bovine whole blood assay, LPS-induced IL-6; format: cell-based; conditions: LPS 1 μg/mL
[4] = system: IL-1β; assay: Bovine whole blood assay, IL-1β; format: cell-based; conditions: drug concentration giving overstimulation of IL-1β over LPS (cellular toxicity signal)
Protocol: as §1

[5] = system: P. multocida; assay: Murine P. multocida intranasal challenge study with lung tissue RNA sequence analysis; format: in vivo, mouse; conditions: placebo 0%
Protocol: In one murine P. multocida intranasal challenge study, mice were administered tulathromycin (16 mg/kg; T02), M9 (32 mg/kg; T03), or ceftiofur (9 mg/kg; T04) by subcutaneous injection 18 hours after bacterial challenge (5×10^3 CFU/mouse) for lung tissue RNA sequence analysis. Survival at Day 7 was about 80%, 50%, and 90% for T02, T03, and T04, respectively, compared to placebo at 0%. Differential gene expression from total lung tissue RNA sequence analysis indicated at least 226 unique genes were up or down regulated (with significance) for T03. Output from ingenuity pathway analysis of these unique genes predicted major upstream regulators of the involved pathways. Data was analyzed based on the number of genes being modulated in the same direction that were associated with a given upstream regulator. An activation z-score of 2 or greater is considered significant and the direction change is indicated by + (activated) or − (inhibited). The top 5 pathways included: IL-9 signaling, glucocorticoid receptor signaling, prolactin signaling, JAK STAT signaling, and IL-17 signaling. The top 6 upstream regulators (activation z-score) included: lipopolysaccharide (−6.725), TNF (−4.669), IFNγ (−5.759), IL-1β (−5.947), STAT1 (−2.787), and poly rI:rC-RNA (−5.289). Even though this study was run in the murine model, the top upstream regulators identified as being modulated by M9 include an almost ubiquitous overlap with the pathways identified in the natural disease study as being key mediators in BRD, and therefore is modulating highly relevant pathways in BRD pathobiology.

[6] = system: M. haemolytica; assay: In-vitro MIC model, M. haemolytica; format: cell-based
[7] = system: bovine respiratory disease (BRD); assay: Natural bovine respiratory disease study; format: in vivo, beef calves; conditions: T04, dose not given, 14-day observation; saline 43%
[8] = system: H. somni; assay: In-vitro MIC model, H. somni; format: cell-based; conditions: lung isolates at necropsy, natural BRD study, H. somni (25)
[9] = system: P. multocida; assay: In-vitro MIC model, P. multocida; format: cell-based
[10] = system: M. haemolytica (strain: OSU-012103-BHI); assay: Bovine M. haemolytica intratracheal lung challenge model; format: in vivo
[11] = lung isolates at necropsy, natural BRD study, M. haemolytica (116)
[12] = lung isolates at necropsy, natural BRD study, P. multocida (33)

With `CC[C@H]1OC(=O)[C@H](C)[C@@H](O[C@H]2C[C@@](C)(OC)[C@](O)(CNCC(C)C)[C@H](C)O2)[C@H](C)[C@@H](O[C@@H]2O[C@H](C)C[C@H]3[C@H]2OC(=Nc2ccc(OC)nc2)N3C)[C@](C)(O)C[C@@H](C)CN[C@H](C)[C@@H](O)[C@]1(C)O` (mixture of isomers) [Example A-28, (E/Z)-(2R,3S,4R,5R,8R,10R,11R,12S,13S,14R)-2-ethyl-3,4,10-trihydroxy-13-(((2R,4R,5S,6S)-5-hydroxy-5-((isobutylamino)methyl)-4-methoxy-4,6-dimethyltetrahydro-2H-pyran-2-yl)oxy)-11-(((3aR,4S,6R,7aS)-2-((6-methoxypyridin-3-yl)imino)-1,6-dimethylhexahydro-2H-pyrano[4,3-d]oxazol-4-yl)oxy)-3,5,8,10,12,14-hexamethyl-1-oxa-6-azacyclopentadecan-15-one] as the compound, how does the “% Survival” value [1] read?
The value was 53%.

What about the IC50 [2] of the same compound?
The IC50 was 8 µM.

What about the IC50 [3] of the same compound?
The IC50 was 20 µM.

What about the “IL-Iβ OS of LPS” value [4] of the same compound?
Its value is 16 µM.

How did the “Survival at Day 7” value ([5]; 9 mg/kg subcutaneous 18 hours after challenge (T04)) turn out when `CO/N=C(\C(=O)N[C@@H]1C(=O)N2C(C(=O)O)=C(CSC(=O)c3ccco3)CS[C@H]12)c1csc(N)n1` [ceftiofur] was run?
The value was about 90%.

Which results are given for `CCCN1C[C@H](C)[C@@H](O)[C@](C)(O)[C@@H](CC)OC(=O)[C@H](C)[C@@H](O[C@H]2C[C@@](C)(OC)[C@@H](O)[C@H](C)O2)[C@H](C)[C@@H](O[C@@H]2O[C@H](C)C[C@H](N(C)C)[C@H]2O)[C@](C)(O)C[C@H]1C` [gamithromycin, reference compound]?
MIC50 [6, 11]: 1 µg/mL (≈ 1.29 µM); MIC90 [6, 11]: >64 µg/mL; MIC values, range over strains ([6]; the same M. haemolytica screening strains): 0.5 to 1 µg/mL; Percent failure (treatment failure) [7]: 29.8%; MIC50 [8]: 0.25 µg/mL (≈ 0.322 µM); MIC90 [8]: 2 µg/mL (≈ 2.57 µM); MIC50 [9, 12]: 1 µg/mL (≈ 1.29 µM); MIC90 [9, 12]: >64 µg/mL; MIC values, range over strains ([9]; the same P. multocida screening strains): 1 to 2 µg/mL

Which results are given for `CCCNC[C@]1(O)[C@H](C)O[C@@H](O[C@H]2[C@H](C)[C@@H](O[C@@H]3O[C@H](C)C[C@H](N(C)C)[C@H]3O)[C@](C)(O)C[C@@H](C)CN[C@H](C)[C@@H](O)[C@](C)(O)[C@@H](CC)OC(=O)[C@@H]2C)C[C@@]1(C)OC` [tulathromycin, (2R,3S,4R,5R,8R,10R,11R,12S,13S,14R)-11-(((2S,3R,4S,6R)-4-(dimethylamino)-3-hydroxy-6-methyltetrahydro-2H-pyran-2-yl)oxy)-2-ethyl-3,4,10-trihydroxy-13-(((2R,4R,5S,6S)-5-hydroxy-4-methoxy-4,6-dimethyl-5-((propylamino)methyl)tetrahydro-2H-pyran-2-yl)oxy)-3,5,8,10,12,14-hexamethyl-1-oxa-6-azacyclopentadecan-15-one]?
Mortality ([10]; T03: 2.5 mg/kg subcutaneous Day −1, M. haemolytica challenge Day 0, saline 4/6): 0/6; IL-6 levels, in words ([10]; bovine M. haemolytica challenge, blood biomarker): significantly reduced; Survival at Day 7 ([5]; 16 mg/kg subcutaneous 18 hours after challenge (T02)): about 80%
